Assay results: patent US20190185896A1, “Stimulation of Regenerative Processes and Factors by Noble Gases” (NOBILIS THERAPEUTICS, INC., priority 2017, published 2019)

Tests used:
[1] = tested on: VEGF expression in fibroblasts; experiment: VEGF expression in fibroblasts in vitro (immunofluorescence staining, western blotting); format: cell-based; settings: 75% Argon+25% O2, 24 h after treatment
TGF-β = experiment: TGFβ staining of adult mouse cutaneous wounds; format: in vivo; settings: mouse cutaneous wounds, 3, 5, 8 day after wound, versus 75% N2
Source text: (§1) To create the excisional wounds, adult mice were anesthetized and the dorsal skin was shaved, after sanitizing with 70% ethanol, 4 full-thickness excisional wounds were generated with a 4-mm sterile punch (stiefel laboratories, Research Triangel Park, N.C.). On the dorsal skin using 4-mm-diameter dermal biopsy punches through the two layers of skin (Miltex Inc.).
(§2) The perfusion fixed skin tissue was cryosectioned (thickness 30 μm) and mounted on Superfrost Plus glass slides for the process of immunostaining analysis. The sections were initially incubated by a solution of 0.3% hydrogen peroxide in methanol to quench endogenous peroxidase before being exposed to a blocking solution of 0.1M phosphate buffered saline (PBS) containing 0.3% Triton X-100 and 3% natural sheep serum (NSS). Following this process of blocking the sections were incubated overnight at […] with rat polyclonal angiopoietin 1, VEGF, CD34, TGF-β (Abcam, UK). […]
(§3) (A) Immunohistochemical analyses using anti-CD34 in skin wound samples from the mice treated with Nitrogen and Argon. […] The numbers of new vessels per a high-power microscopic field (×100) in 10 fields/a slide was counted. […] The intensity of TGFβ was quantified by densitometry and normalized by 75% N2 at 3 day (mean±S.D, n=10), * p<0.05.

Angiopoietin 1 = Angiopoietin 1 staining of adult mouse cutaneous wounds; format: in vivo; settings: mouse cutaneous wounds, 3, 5, 8 day after wound, versus 75% N2
Source text: as §1, §2
(§4) (A) Angiopoietin 1 staining of adult mouse cutaneous wounds. […] Right lane: the intensity of Angiopoietin 1 was quantified by densitometry and normalized by 75% N2 at 3 day (mean±S.D, n=10), * p<0.05. […] The intensity of VEGF was quantified by densitometry and normalized by 75% N2 at 3 day (mean±S.D, n=10), * p<0.05.

HUVECs = experiment: Cell migration scratch assay; format: cell-based; settings: 75% argon for 2 hours, 16 hours post-exposure
Protocol: The following was adopted from a previous published protocol (Liang et al., 2007) to study the influence of argon on migration of HUVECs. Prior to assay, HUVECs in EGM were re-suspended in incomplete LSGS medium and seeded onto pre-coated 12-well plates at a density of 2-3×10^5/well. The plates were incubated at 37° C. with 5% CO2 overnight for the cells to adhere to the gelatin surface as well as to create a confluent monolayer. Use of low serum condition is crucial as it ensures survival and attachment of cells while minimising their proliferation.
Once 100% confluence was reached, the monolayers were scraped using a sterile p1000 pipette tip along the middle to create a straight-line “scratch”. After cell debris was washed off, the wells were replenished with fresh incomplete-LSGS medium.
The plates were then exposed to normal air, 75% argon or 75% nitrogen for 2 hours. From 0 to 16 hours post-exposure, wells were examined every 4 hours. […] The cells were then fixed with 4% paraformaldehyde (Fischer, UK) for 8 minutes and stained with 0.1% crystal violet (Sigma-Aldrich, UK) for 10 minutes. Images were taken as described in the previous section.

VEGF = VEGF staining of adult mouse cutaneous wounds; format: in vivo; settings: mouse cutaneous wounds, 3, 5, 8 day after wound, versus 75% N2
Source text: as §1, §2, §4

CD34 = experiment: Anti-CD34 immunohistochemistry of skin wound samples (new vessels in the wound area); format: in vivo, mice; settings: mouse skin wound samples, versus Nitrogen
Source text: as §1, §2, §3

skin wound = experiment: Skin wound healing in mice (excisional wounds); format: in vivo; settings: 75% Argon versus 75% nitrogen
Source text: as §1
A Macroscopic changes in skin wound site in a mice treated with 75% nitrogen or Argon. Day 0 picture was taken immediately after injury. Representative images from 2 individual animals in both groups are shown.

[2] = tested on: a SMA expression in fibroblasts; experiment: a-SMA expression in fibroblasts in vitro (immunofluorescence staining, western blotting); format: cell-based; settings: 75% Argon+25% O2, 10 ng/ml TGF, 72 h after treatment
Protocol: For in vitro fluorescence staining, cells were fixed in paraformaldehyde in 0.1 mol/l PBS solution. Cells were then incubated in 10% normal donkey serum in 0.1 mol/l PBS-Tween 20 and then incubated overnight with rabbit anti-angiopoietin-1 (1:200, Abcam), rabbit anti-TGF-β (1:200, Abcam), rabbit α-SMA (1:200, Abcam), followed by incubation with secondary antibody for 1 h. The slides were counterstained with nuclear dye DAPI and mounted with VECTASHIELD Mounting Medium (Vector Laboratories, Burlingame, Calif.). Sections were examined using an Olympus (Watford, UK) BX4 microscope.
HUVEC cell sample was stored in a −80° C. freezer until use. Cell samples were homogenized in ice-cold cell lysis buffer (20 mM Tris pH 7.5, 1% Triton X-100, 150 mM sodium chloride, 1% pyrophosphate, 1% betaglycophosphate, 1% NP-40, 0.1% SDS, 1 mM EDTA, 100 μg/ml phenylmethylsulfonyl fluoride, 1 μg/ml aprotinin). All homogenates were then centrifuged for 20 minutes at 15,000 rpm at 4° C. The supernatants were then extracted and protein quantification was carried out using a Bradford protein quantification assay kit (Bio-Rad, Hemel Hempstead, UK). […]
Membranes were then blocked in 5% non-fat powdered milk in TBST (50 mM Tris-HCl, 150 mM sodium chloride, 0.1% Tween 20, pH 7.4). […] Protein bands were then analyzed by densitometric quantification with Adobe PhotoShop (Adobe Systems, California, USA). […]

[3] = tested on: cerebral cortical neurons; settings: 75% concentration, in vitro, regardless of presence or absence of OGD injury; cited from earlier work

Compound: [Ar] [Argon, argon]
- VEGF expression in vitro [1]: enhanced
- TGF-β in vivo (TGF-β): enhanced
- Angiopoietin 1 expression in vivo (Angiopoietin 1): enhanced
- Scratch closure by migrating cells (HUVECs): completely closed
- VEGF expression in vivo (VEGF): enhanced
- CD34 in vivo (new vessels in the wound area) (CD34): enhanced
- Skin wound healing (skin wound): accelerated
- a-SMA expression in vitro [2]: enhanced
- Viability and proliferation of cerebral cortical neurons [3]: potently enhanced
